Results taken from patent US10160747B2, “Compounds and methods for kinase modulation, and indications therefor” (Plexxikon Inc., priority 2016, dated 2018).

Test system: MOLM-14 F691L (endogenous FLT3 ITD and transfected FLT3 F691L)
Assay: MOLM-14 F691L cell proliferation assay (CellTiter-Glo)
Assay type: cell-based
Conditions: Homo sapiens, MOLM-14, 72 h; 3 d growth, GMean
How it was run: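 MOLM-14 cells (FLT3 ITD) carrying D835Y or F691L, 1×10^4 cells/well, eight 1:3 dilutions from 1 μM final, 0.2% DMSO, 3 days at 37 °C, 5% CO2. Viability by CellTiter-Glo luminescence (ATP content); IC50 from concentration-response.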

IC50 | SMILES
0.0001 to 10 µM | COc1ncc(NC(=O)Cc2ccc(-c3cnc4[nH]c(-c5ccc(C#N)nc5)cc4c3)cc2F)cc1C(F)(F)F [Compound P-0011, 2-[4-[2-(6-cyano-3-pyridyl)-1H-pyrrolo[2,3-b]pyridin-5-yl]-2-fluoro-phenyl]-N-[6-methoxy-5-(trifluoromethyl)-3-pyridyl]acetamide]
0.0001 to 10 µM | COc1ncc(NC(=O)Cc2ccc(-c3cnc4[nH]c(-c5ccnc(C#N)c5)cc4c3)cc2F)cc1C(F)(F)F [Compound P-0013, 2-[4-[2-(2-cyano-4-pyridyl)-1H-pyrrolo[2,3-b]pyridin-5-yl]-2-fluoro-phenyl]-N-[6-methoxy-5-(trifluoromethyl)-3-pyridyl]acetamide]
0.0001 to 10 µM | COc1ncc(NC(=O)Cc2ccc(-c3cnc4[nH]c(-c5ccc(C#N)nc5)cc4c3)c(F)c2)cc1C(F)(F)F [Compound P-0014, 2-[4-[2-(6-cyano-3-pyridyl)-1H-pyrrolo[2,3-b]pyridin-5-yl]-3-fluoro-phenyl]-N-[6-methoxy-5-(trifluoromethyl)-3-pyridyl]acetamide]
0.0001 to 10 µM | COc1ncc(NC(=O)Cc2ccc(-c3cnc4[nH]c(-c5cnn(C(F)F)c5)cc4c3)cc2F)cc1C(F)(F)F [Compound P-0015, 2-[4-[2-[1-(difluoromethyl)pyrazol-4-yl]-1H-pyrrolo[2,3-b]pyridin-5-yl]-2-fluoro-phenyl]-N-[6-methoxy-5-(trifluoromethyl)-3-pyridyl]acetamide]
0.0001 to 10 µM | COc1ncc(NC(=O)Cc2ccc(-c3cnc4[nH]c(-c5ccnc(C#N)c5)cc4c3)c(F)c2)cc1C(F)(F)F [Compound P-0016, 2-[4-[2-(2-cyano-4-pyridyl)-1H-pyrrolo[2,3-b]pyridin-5-yl]-3-fluoro-phenyl]-N-[6-methoxy-5-(trifluoromethyl)-3-pyridyl]acetamide]
0.0001 to 10 µM | COc1ncc(NC(=O)Cc2cc(F)c(-c3cnc(Nc4cnn(C)c4)nc3)cc2F)cc1C(F)(F)F [Compound P-0208, 2-[2,5-difluoro-4-[2-[(1-methylpyrazol-4-yl)amino]pyrimidin-5-yl]phenyl]-N-[6-methoxy-5-(trifluoromethyl)-3-pyridyl]acetamide]
0.0001 to 10 µM | CCn1cc(Nc2ncc(-c3ccc(CC(=O)Nc4cnc(OC)c(C(F)(F)F)c4)cc3F)cn2)cn1 [Compound P-0246, 2-[4-[2-[(1-ethylpyrazol-4-yl)amino]pyrimidin-5-yl]-3-fluoro-phenyl]-N-[6-methoxy-5-(trifluoromethyl)-3-pyridyl]acetamide]
0.0001 to 10 µM | CCn1cc(Nc2ncc(-c3cc(F)c(CC(=O)Nc4cnc(OC)c(C(F)(F)F)c4)cc3F)cn2)cn1 [Compound P-0247, 2-[4-[2-[(1-ethylpyrazol-4-yl)amino]pyrimidin-5-yl]-2,5-difluoro-phenyl]-N-[6-methoxy-5-(trifluoromethyl)-3-pyridyl]acetamide]
0.0001 to 10 µM | CCn1cc(Nc2ncc(-c3ccc(CC(=O)Nc4cnc(C)c(C(F)(F)F)c4)cc3F)cn2)cn1 [Compound P-0248, 2-[4-[2-[(1-ethylpyrazol-4-yl)amino]pyrimidin-5-yl]-3-fluoro-phenyl]-N-[6-methyl-5-(trifluoromethyl)-3-pyridyl]acetamide]
0.0001 to 10 µM | CCn1cc(Nc2ncc(-c3cc(F)c(CC(=O)Nc4cnc(C)c(C(F)(F)F)c4)cc3F)cn2)cn1 [Compound P-0249, 2-[4-[2-[(1-ethylpyrazol-4-yl)amino]pyrimidin-5-yl]-2,5-difluoro-phenyl]-N-[6-methyl-5-(trifluoromethyl)-3-pyridyl]acetamide]
0.0001 to 10 µM | COc1ncc(NC(=O)Cc2ccc(-c3cnc4[nH]nc(C5CC5)c4c3)cc2F)cc1C(F)(F)F [Compound P-0262, 2-[4-(3-cyclopropyl-1H-pyrazolo[3,4-b]pyridin-5-yl)-2-fluoro-phenyl]-N-[6-methoxy-5-(trifluoromethyl)-3-pyridyl]acetamide]
0.0001 to 10 µM | COc1ncc(NC(=O)Cc2ccc(-c3cnc4[nH]nc(C5CC5)c4c3)cc2)cc1C(F)(F)F [Compound P-0263, 2-[4-(3-cyclopropyl-1H-pyrazolo[3,4-b]pyridin-5-yl)phenyl]-N-[6-methoxy-5-(trifluoromethyl)-3-pyridyl]acetamide]
